The source of these data is article PMC8007834, “Anti-estrogenic and anti-aromatase activities of citrus peels major compounds in breast cancer” (Scientific Reports, 2021).

In brackets after ≈: the same amount, converted by molar mass.

The test system of one data set is T47D. The experiment in a line: SRB cytotoxicity assay on T47D. Particulars: ± SD; for IC50: Homo sapiens, T47D, read-out: IC50 values, cytotoxic effect on T47D. Format: cell-based, human. As for the experimental part: (§1) The assessment was performed in the National Cancer Institute in Egypt (NCI). The half maximal inhibitory concentration (IC50) values were then calculated from three independent experiments, three replicates each for each sample.
A general note: In SRB staining, fixed cells bind dye roughly in proportion to their protein.

The subject of a further data set is MCF-7. The experiment in a line: SRB cytotoxicity assay on MCF7. The following applies: for IC50: Homo sapiens, MCF7, ± SD, read-out: IC50 values, cytotoxic effect on MCF7. The class given is cell-based, human. On the procedure: as §1
Data set [1] can be described thus: SRB cytotoxicity assay on normal HFB4 cells. Format: cell-based, human. The following applies: human, normal HFB4 cells, ± SD, read-out: IC50 values, cytotoxic effect on HFB4. On the procedure: (§2) The cytotoxic activity of the ethanolic extracts of the peels along with the isolated major phenolics was tested against two human estrogen-dependent breast cancer cell lines, namely, MCF-7 and T47D, as well as the normal human HFB4 cells for assessment of toxicity, using the sulforhodamine B (SRB) assay. The assessment was performed in the National Cancer Institute in Egypt (NCI). The half maximal inhibitory concentration (IC50) values were then calculated from three independent experiments, three replicates each for each sample.

The next data set deals with Aromatase. The experiment in a line: Aromatase protein levels in EAC solid tumors (ELISA). The class given is in vivo, mice. From the text: (§3) EAC cells were collected from the ascitic fluid of a female Swiss albino mouse bearing a 10-day old ascitic tumor where approximately 2.5 × 10^6 cells were transplanted, i.m. in the left thigh of female mice. When tumors became palpable (approximately 200–300 mm^3 in volume), treatment was initiated. Forty EAC-tumour bearing mice were randomly allocated into the following groups (n = 10): (1) PC group: positive control group that received only drug vehicle, (2) Qrt.-treated group: Mice were treated with a daily dose of 100 mg/kg of quercetin[30] i.p., (3) Narn.-treated group: Mice were treated with a daily dose of 50 mg/kg of naringenin, i.p.[31], and (4) Nar.-treated group: Mice were treated with a daily dose of 100 mg/kg of naringin, i.p.[32]. Treatment doses were given daily excluding Fridays and Saturdays. Tween 80 (1%) was used as a vehicle. Mice were sacrificed under brief anaesthesia at the 20th day after starting treatment and tumors were collected for further analysis.
Excised tumors were homogenized as 10% (w/v) in phosphate buffered saline. Aromatase concentration was then determined in tissue homogenates using Mouse Aromatase ELISA kit (MyBiosource, USA), according to the manufacturer’s instructions. Optical density equivalent to aromatase levels in samples was determined at 450 nm using a microplate reader.
On the technique in general: In an ELISA, binding on a coated surface is turned into a signal by an enzyme label.

In data set [2] the test system is Ehrlich ascites carcinoma (EAC) solid tumor. The experiment in a line: Ehrlich ascites carcinoma (EAC) solid tumor model, tumor volume. The class given is in vivo, mice. Particulars: 19th day after treatment; quercetin 100, naringenin 50, naringin 100 mg/kg i.p. daily.
Excerpt: as §3, with “In order to evaluate the anticancer effect of the active isolates (quercetin, naringenin and naringin) and their potential to decrease aromatase levels in tumours, an animal model of Ehrlich ascites carcinoma (EAC) solid tumour was used followed by aromatase ELISA assay as will be described later. Swiss albino female mice (20-25 g) were used for the experiment. EAC cells” for “EAC cells”, “palpable (approximately 200-300 mm^3 in” for “palpable (approximately 200–300 mm^3 in”, “Nar.-treated group: […] Treatment doses” for “Nar.-treated group: Mice were treated with a daily dose of 100 mg/kg of naringin, i.p.[32]. Treatment doses”, “further analysis. Tumor volume was calculated using a digital caliper at days 0, 4, 7, 10, 13, 16, and 19 after treatment, according to the following equation[33]: […]” for “further analysis.”

Data set [3] relates to Immature female Swiss albino mice. The experiment in a line: In vivo estrogenic activity assay. Particulars: 30 mg/kg i.p. As for the experimental part:
(§4) Immature female Swiss albino mice (8-13 g) were obtained from the animal house of the Faculty of Pharmacy, The British University in Egypt. All experimental procedures were conducted in compliance with the Animal Research: Reporting of In Vivo Experiments (ARRIVE) guidelines and the National Institutes of Health guide for the care and use of Laboratory animals (NIH Publication No. 85-23, revised 2011) and were approved by the Ethics Committee, Faculty of Pharmacy, The British University in Egypt (Ex-2101). All experiments were performed during the light phase of a light/dark cycle that was started 1 week after acclimatization. The room temperature was adjusted at 25 ± 2 °C. Mice had free access to food and water during the experiments. The experimental design was adopted from[27],[28]. The mice were randomly divided into 9 groups (7-8 mice each) as follows: Group 1: Negative control (NC) receiving only olive oil, s.c.; Group 2: […] For estrogenic activity, Group 3: Genistein phytoestrogen positive control (Gein.) treated group; Group 4: Quercetin (Qrt.) treated group; Group 5: Naringenin (Narn.) treated group and Group 6: Naringin (Nar.) treated group. For anti-estrogenic activity, estradiol was given after treatments by 6 h for Groups 7, 8 and 9 representing […]., respectively. All treatments including genistein were given at a dose of 30 mg/kg dissolved in Tween 80 (1%), i.p., for 7 days. The animals' weights were recorded daily to ensure the safety of the doses used. On the 7th day, the animals were sacrificed, the morphological appearance of the livers was observed, and the uteri were also isolated and weighed. The in vivo estrogenic and anti-estrogenic activities were assessed. The vaginal opening on each day of the study was checked as a sign of puberty. On the 7th day, vaginal swab was taken from the opened vagina to examine the cornification level under light microscope (4× lens). The uteri were excised and weighed after sacrification of mice under anesthesia.

For data set [4] the test system is unchanged. As to the kind of experiment: In vivo anti-estrogenic activity assay (with estradiol). Particulars: for reversal of estradiol-induced vaginal cornification / reduction in uterine weight compared to estradiol alone: 30 mg/kg i.p. plus estradiol; for reduction in uterine weight compared to estradiol alone: 7 days; for day on which vaginal opening reached 100% / day on which vaginal opening started (delay up to day): flavonoid 30 mg/kg i.p. plus estradiol 12.5 µg/kg s.c., estradiol alone as positive control. On the procedure: as §4

The next data set has as its system uterine weight. Set-up: method as in PMID 25337190. Particulars: cited from earlier work.
Data set [5] concerns estrogen-induced uterine weight. Particulars: 30 mg/rat co-treated with estradiol (0.5 µg/rat); cited from earlier work.
Details of data set [6]: method as in PMID 21964193. The following applies: naringin 40 and naringenin 80 mg/kg, respectively; cited from earlier work.
Another data set relates to HFB4 cells. As to the kind of experiment: SRB cytotoxicity assay on normal HFB4 cells. Format: cell-based, human. The following applies: ± SD. On the procedure: as §2

For the compound `COc1ccc(-c2cc(=O)c3c(OC)c(OC)c(OC)c(OC)c3o2)cc1OC` [C1, 5,6,7,8,3′,4′-hexamethoxy flavone], the IC50 (in the data set on T47D; in the data set on MCF-7; in data set [1]) was over 50 µg/mL throughout.

`O=c1c(O)c(-c2ccc(O)c(O)c2)oc2cc(O)cc(O)c12` [C2, 5,7,3′,4′-tetrahydroxy flavonol]: the IC50 (usually the concentration that inhibits the measured activity by half) in the data set with T47D worked out at 1.81 ± 0.28 µg/mL (≈ 5.99 µM). For the same compound, in the data set with MCF-7, the IC50 amounted to 2.11 ± 0.71 µg/mL (≈ 6.98 µM). In addition, in the data set on Aromatase (EAC tumors, ELISA), the “reduction in aromatase levels as compared to naringenin” value is recorded as 26.4% and the “reduction in aromatase levels as compared to naringin” value turned out to be 32%. The “aromatase levels in tumors, lower than positive control group” value in the data set on Aromatase (ELISA on tumor homogenates, day 20, quercetin 100, naringenin 50, naringin 100 mg/kg i.p.) amounted to 72.35%. Further, the half-inhibitory concentration (IC50) in [1] is over 50 µg/mL. For the same compound, in data set [2], the “decrease in tumor volume compared to positive control” value is reported as 61.71%. In addition, in [3] (7 days, no estradiol), the average uterine weight stood at 13.0 ± 3.0 mg and the “day on which vaginal opening started” value is 6 days. In data set [4], the “reversal of estradiol-induced vaginal cornification” value is “not fully reversed”, the “reduction in uterine weight compared to estradiol alone” value is 48%, the “day on which vaginal opening reached 100%” value is 4 days and the “day on which vaginal opening started (delay up to day)” value (shortened to “day … (delay up to day)”) is 2 days. Moreover, the “effect on the uterine weight upon treatment with steroid” value in the data set with uterine weight (10 mg/kg) was “anti-estrogenic effect”. Also, the “estrogenic effect at higher dose” value with uterine weight (100 mg/kg) is reported as “potent estrogenic effect”.

As to `O=C1CC(c2ccc(O)cc2)Oc2cc(O)cc(O)c21` (centres unmarked) [C4, 5,7,4′-trihydroxy flavanone], in data set [5], the “effect on estrogen-induced uterine weight” value is on record as “significant decrease in estrogen-induced uterine weight”. Besides, the IC50 in the data set on T47D is 1.93 ± 0.07 µg/mL (≈ 7.09 µM). Moreover, the IC50 in the data set with MCF-7 was 1.12 ± 0.09 µg/mL (≈ 4.11 µM). Besides, the IC50 in data set [1] is over 50 µg/mL. Also, in data set [2], the “decrease in tumor volume compared to positive control” value was 73.26%. Besides, the average uterine weight in data set [3] (7 days, no estradiol) was 16.0 ± 3.7 mg. Also, in data set [4], the “reversal of estradiol-induced vaginal cornification” value was “not fully reversed”, the “reduction in uterine weight compared to estradiol alone” value is 58%, the “day on which vaginal opening reached 100%” value was determined as 7 days and the “day … (delay up to day)” value was found to be 5 days. Further, the “estrogenic and anti-estrogenic activities” value in data set [6] is “double directional estrogenic and anti-estrogenic activities”.

Consider `C[C@]12CC[C@@H]3c4ccc(OC(=O)c5ccccc5)cc4CC[C@H]3[C@@H]1CC[C@@H]2O` [estradiol, Estradiol benzoate, reference compound], for which, in data set [4] (7 days treatment), the body weight came out at 15.6 ± 1.8 g. In [4] (estradiol alone 12.5 µg/kg s.c.), this compound came in with a uterine weight of 215.0 ± 64.4 mg. In addition, in data set [4], the “day on which vaginal opening reached 100%” value was 5 days and the “day … (delay up to day)” value was found to be 2 days.

For the compound `COc1ccc(C2CC(=O)c3c(O)cc(O)cc3O2)cc1O` (centres unmarked) [C6, 5,7,3′-trihydroxy-4′-methoxy flavanone], the IC50 is 3.53 ± 0.19 µg/mL (≈ 11.7 µM) in the data set with T47D, 4.96 ± 0.89 µg/mL (≈ 16.4 µM) in the data set with MCF-7 and over 50 µg/mL in data set [1].

On to `COc1ccc([C@@H]2CC(=O)c3c(O)cc(O[C@@H]4O[C@H](CO[C@@H]5O[C@@H](C)[C@H](O)[C@@H](O)[C@H]5O)[C@@H](O)[C@H](O)[C@H]4O)cc3O2)cc1O` [C5, 5,3′-dihydroxy-4′-methoxy flavanone-7O-α-L-rhamnopyranosyl (1 → 6)β-D-glucopyranoside], for which the “IC50 values, cytotoxic effect on T47D” value in the data set with T47D is on record as “– ((−) no activity in a concentration up to 50 µg/mL)”. Besides, the “IC50 values, cytotoxic effect on MCF7” value in the data set with MCF-7 (± SD) is “– ((−) no activity in a concentration up to 50 µg/mL)”. The “IC50 values, cytotoxic effect on HFB4” value with HFB4 cells is “– ((−) no activity in a concentration up to 50 µg/mL)”.

With `COc1ccc(-c2cc(=O)c3c(O)cc(O[C@@H]4O[C@H](CO[C@@H]5O[C@@H](C)[C@H](O)[C@@H](O)[C@H]5O)[C@@H](O)[C@H](O)[C@H]4O)cc3o2)cc1O` [C3, 5,3′-dihydroxy-4′-methoxy flavone-7O-α-L-rhamnopyranosyl (1 → 6)β-D-glucopyranoside], the IC50 (with T47D; in the data set on MCF-7; in data set [1]) was over 50 µg/mL each time.

`O=c1c(-c2ccc(O)cc2)coc2cc(O)cc(O)c12` [genistein, reference compound] displayed an average uterine weight in data set [3] (7 days, no estradiol) of 20.0 ± 7.5 mg. Moreover, the vaginal cornification entry in data set [3] (day 7 swab) is on record as “mild vaginal cornification”.

With `C[C@@H]1O[C@@H](OC[C@H]2O[C@@H](Oc3c(-c4ccc(O)c(O)c4)oc4cc(O)cc(O)c4c3=O)[C@H](O)[C@@H](O)[C@@H]2O)[C@H](O)[C@H](O)[C@H]1O` [C7, 5,7,3′,4′-tetrahydroxy flavon-3O-α-L-rhamnopyranosyl (1 → 6)β-D-glucopyranoside], the IC50 (in the data set on T47D; in the data set with MCF-7; in [1]) was over 50 µg/mL throughout.
